Data reported in US11421264B2, “Thiol-containing cleave reagents and oxidative wash” (IsoPlexis Corporation, priority 2015, dated 2022).
Counter-ions that a name gives are not always drawn.

Tests used:
[1] = Cleavage of 3′-(MeSSCH2) capped nucleotide with attached disulfide linker by thiol based cleave reagents (LC-MS); settings: for Compound C [%]: fully cleaved product; for Compound C [%] / Compound B [%] / Compound A [%]: Compound A 0.2 mM, cleave agent 20 mM, buffer 200 mM TE pH 8.5, 10 min @ 65 degree C.; for Compound B [%]: partly cleaved product; for Compound A [%]: starting nucleotide left, relative peak area at 280
Protocol: The structures of these cleave reagents are shown. See, FIG. 83. The cleavage products were then characterized by liquid chromatography/mass spectrometry ((LC/MS). See, FIG. 84. Compounds A, B and C are shown in FIG. 82A-82C.
This example presents a general method for cleavage studies as presented herein.
A stock solution of 100 mM cleave reagent (see Table-1) was prepared in 1.0 M TE buffer (pH 8.5, Sigma #T9285) in a 15.0 mL centrifuge tube. Then an aliquot of 20 μL (2,000 nmol) of it was diluted with 76.9 uL distilled water in a 1.0 mL centrifuge tube and added with 3.07 μL of 6.5 mM MeSSdUTP-ARA-NH2 (11, 20 nmol) to obtain—100 litL of total volume (Final concentration: 20 mM cleaving agent, 0.2 mM nucleotide, 200 mM TE buffer). The mixture tube was heated at 65 degree C. on a pre-heated thermocycler by shaking gently. The mixture was immediately analyzed by LC-MS after 10 minutes. The % conversion was determined by relative peak areas of the respective peaks extracted at 280 mu wavelength.

[2] = Cleavage of nucleotide with dithio 3′ protective group and dithio based linker by cleavage agents (RP-HPLC, FIG. 78); settings: RP-HPLC after 10 minutes of incubation with cleave reagent
From the text: In addition to these a variety of suitable cleaving agents can be used such as Bis(2-mercaptoethyl)sulfone (BMS) and N,N′-dimethyl-N,N′-bis(mercaptoacetyl)hydrazine (DMH) (Singh et al., Bioorg. Chem., 22, 109-115 (1994). Reactions can be further catalyzed by inclusion of selenols (Singh et al. Anal Biochem. 1995 Nov. 20; 232(1):86-91 [18]). Borohydrides, such as sodium borohydrides can also be used for this purpose (Stahl et al., Anal. Chem., 1957, 29 (1), pp 154-155 [19]) as well as ascorbic acid (Nardai et al., J. Biol. Chem. 276, 8825-8828 (2001)). In addition, enzymatic methods for cleavage of disulfide bonds ae also well known such as disulfide and thioreductase and can be used with compounds of the present invention (Holmgren et. al., Methods in Enzymology, Volume 252, 1995, Pages 199-208 [21]).

Molecule | Compound C [%] [1] | Compound B [%] [1] | Compound A [%] [1] | identified composition of reaction mixture: cleavage of linker and 3′-protective group [2] | cleavage of both the capping group and the linker ([1]; in less than ten (10) minutes at 65° C. in TRIS buffer (pH 8.5))
N[C@@H](CS)C(=O)O [L-Cysteine] | 100% | 0% | 0% | full cleavage of both linker and the 3′-protective groups | –
NCCS [Cysteamine] | 100% | 0% | 0% | full cleavage of both linker and the 3′-protective groups | –
OC(=S)CCC(O)=S [Dithiosuccinic acid] | – | – | – | – | complete cleavage was not observed
O=S(=O)(O)CC(S)CS (centres unmarked) [Dimercaptopropanesulfonate, 2,3-Dimercapto-1-propanesulfonic acid sodium salt] | 100% | 0% | 0% | – | –
Dithiosuccinic acid | 50% | 50% | 0% | selective cleavage of 3′-O-protective group | –
O[C@H](CS)[C@H](O)CS (racemic) [DTT, dithiothreitol] | 100% | 0% | 0% | full cleavage of both linker and the 3′-protective groups | –
